Measured values as given in patent publication US6660774B2, “Use of (+)-tramadol, O-demethyltramadol or (+)-O-demethyl-tramadol, O-desmethyl-N-mono-desmethyl-tramadol or (+)- O-desmethyl-N-mono-desmethyltramadol” (Gruenethal GmbH, priority 1999, dated 2003).

What was measured:
[1] = tested on: virgin, female Sprague-Dawley rats (bladder function); assay: Cystometric testing on conscious, virgin rats; assay type: in vivo, rat
[2] = analgesic effects less pronounced on intravenous than on intracerebroventricular administration; cited from earlier work
[3] = 0.1 mg/kg i.v., Diff.: change relative to the initial value
[4] = 0.1 mg/kg i.v., h: after administration, at maximum action
[5] = 0.1 mg/kg i.v., v: before administration (initial value)
[6] = 0.3 mg/kg i.v., Diff.: change relative to the initial value
[7] = 0.3 mg/kg i.v., h: after administration, at maximum action
[8] = 0.3 mg/kg i.v., v: before administration (initial value)
[9] = 0.5 mg/kg i.v., Diff.: change relative to the initial value
[10] = 0.5 mg/kg i.v., h: after administration, at maximum action
[11] = 0.5 mg/kg i.v., v: before administration (initial value)
[12] = 5.0 mg/kg i.v., Diff.: change relative to the initial value
[13] = 5.0 mg/kg i.v., h: after administration, at maximum action
[14] = 5.0 mg/kg i.v., v: before administration (initial value)

For `COc1cccc([C@@]2(O)CCCC[C@@H]2CN(C)C)c1` [(+)-Tramadol, (+)-tramadol], the Basal pressure [1, 3] was “Diff.: −4%”, the Bladder capacity [1, 3] was “Diff.: +18%” and the Inter-contraction interval [1, 3] was “Diff.: +33%”. The Micturition pressure [1, 3] was “Diff.: −20%”, the Micturition volume [1, 3] was “Diff.: +7%” and the Residual volume [1, 3] was “Diff.: 44%”. For the same compound, the Threshold pressure [1, 3] was “Diff.: +48%”, the Basal pressure [1, 4] was “h: 3.85 ± 0.46 cm H2O” and the Bladder capacity [1, 4] was “h: 1.07 ± 0.13 ml”. The Inter-contraction interval [1, 4] was “h: 7.13 ± 0.85 min”, the Micturition pressure [1, 4] was “h: 55 ± 8 cm H2O” and the Micturition volume [1, 4] was “h: 0.80 ± 0.09 ml”. For the same compound, the Residual volume [1, 4] was “h: 0.23 ± 0.07 ml”, the Threshold pressure [1, 4] was “h: 11.63 ± 1.05 cm H2O” and the Basal pressure [1, 5] was “v: 4.01 ± 0.57 cm H2O”. For the same compound, the Bladder capacity [1, 5] was “v: 0.91 ± 0.11 ml”, the Inter-contraction interval [1, 5] was “v: 5.35 ± 0.63 min” and the Micturition pressure [1, 5] was “v: 69 ± 11 cm H2O”. For the same compound, the Micturition volume [1, 5] was “v: 0.75 ± 0.12 ml”, the Residual volume [1, 5] was “v: 0.16 ± 0.01 ml” and the Threshold pressure [1, 5] was “v: 7.87 ± 1.51 cm H2O”. For the same compound, the Basal pressure [1, 6] was “Diff.: +10%”, the Bladder capacity [1, 6] was “Diff.: +39%” and the Inter-contraction interval [1, 6] was “Diff.: +19%”. The Micturition pressure [1, 6] was “Diff.: −15%”, the Micturition volume [1, 6] was “Diff.: +13%” and the Residual volume [1, 6] was “Diff.: +167%”. For the same compound, the Threshold pressure [1, 6] was “Diff.: +95%”, the Basal pressure [1, 7] was “h: 4.95 ± 0.19 cm H2O” and the Bladder capacity [1, 7] was “h: 1.38 ± 0.14 ml”. The Inter-contraction interval [1, 7] was “h: 7.21 ± 0.72 min”, the Micturition pressure [1, 7] was “h: 60 ± 5 cm H2O” and the Micturition volume [1, 7] was “h: 0.97 ± 0.13 ml”. For the same compound, the Residual volume [1, 7] was “h: 0.40 ± 0.04 ml”, the Threshold pressure [1, 7] was “h: 16.01 ± 1.63 cm H2O” and the Basal pressure [1, 8] was “v: 4.50 ± 0.29 cm H2O”. The Bladder capacity [1, 8] was “v: 0.99 ± 0.08 ml”, the Inter-contraction interval [1, 8] was “v: 6.06 ± 0.49 min” and the Micturition pressure [1, 8] was “v: 71 ± 4 cm H2O”. For the same compound, the Micturition volume [1, 8] was “v: 0.86 ± 0.07 ml”, the Residual volume [1, 8] was “v: 0.15 ± 0.01 ml” and the Threshold pressure [1, 8] was “v: 8.21 ± 0.42 cm H2O”. The Basal pressure [1, 9] was “Diff.: +13%”, the Bladder capacity [1, 9] was “Diff.: +18%” and the Inter-contraction interval [1, 9] was “Diff.: +21%”. The Micturition pressure [1, 9] was “Diff.: −22%”, the Micturition volume [1, 9] was “Diff.: +22%” and the Residual volume [1, 9] was “Diff.: −14%”. The Threshold pressure [1, 9] was “Diff.: +91%”, the Basal pressure [1, 10] was “h: 4.70 ± 1.14 cm H2O” and the Bladder capacity [1, 10] was “h: 1.43 ± 0.11 ml”. The Micturition pressure [1, 10] was “h: 57 ± 10 cm H2O”, the Micturition volume [1, 10] was “h: 1.31 ± 0.12 ml” and the Residual volume [1, 10] was “h: 0.12 ± 0.002 ml”. For the same compound, the Threshold pressure [1, 10] was “h: 15.0 ± 2.58 cm H2O”, the Basal pressure [1, 11] was “v: 4.16 ± 0.62 cm H2O” and the Bladder capacity [1, 11] was “v: 1.21 ± 0.06 ml”. The Micturition pressure [1, 11] was “v: 73 ± 12 cm H2O”, the Micturition volume [1, 11] was “v: 1.07 ± 0.06 ml” and the Residual volume [1, 11] was “v: 0.14 ± 0.03 ml”. The Threshold pressure [1, 11] was “v: 7.85 ± 1.04 cm H2O”, the “effect on bladder parameters (in words)” value ([1]; 5 mg/kg i.v.) was “has an effect” and the Basal pressure [1, 12] was “Diff.: +53%”. For the same compound, the Bladder capacity [1, 12] was “Diff.: −2%”, the Inter-contraction interval [1, 12] was “Diff.: +7%” and the Micturition pressure [1, 12] was “Diff.: −15%”. For the same compound, the Micturition volume [1, 12] was “Diff.: +46%”, the Residual volume [1, 12] was “Diff.: −95%” and the Threshold pressure [1, 12] was “Diff.: +140%”. For the same compound, the Basal pressure [1, 13] was “h: 6.46 ± 1.13 cm H2O”, the Bladder capacity [1, 13] was “h: 0.90 ± 0.09 ml” and the Micturition pressure [1, 13] was “h: 51 ± 7 cm H2O”. The Micturition volume [1, 13] was “h: 1.18 ± 0.12 ml”, the Residual volume [1, 13] was “h: 0.006 ± 0.003 ml” and the Threshold pressure [1, 13] was “h: 19.20 ± 3.02 cm H2O”. For the same compound, the Basal pressure [1, 14] was “v: 4.23 ± 0.35 cm H2O”, the Bladder capacity [1, 14] was “v: 0.92 ± 0.08 ml” and the Micturition pressure [1, 14] was “v: 60 ± 4 cm H2O”. The Micturition volume [1, 14] was “v: 0.81 ± 0.07 ml”, the Residual volume [1, 14] was “v: 0.11 ± 0.02 ml” and the Threshold pressure [1, 14] was “v: 8.0 ± 1.10 cm H2O”. The “bladder capacity (in words)” value ([1]; rat, in vivo) was “distinct increase”.

For `CNCC1CCCCC1(O)c1cccc(O)c1` (stereo not drawn) [M5, O-desmethyl-N-mono-desmethyltramadol], the “penetration of the blood-brain barrier (in words)” value [2] is listed as “only a limited extent”.

For `CN(C)CC1CCCCC1(O)c1cccc(O)c1` (stereo not drawn) [O-demethyltramadol], the “effect on bladder function (in words)” value ([1]; even at low concentrations) was “clear effect”.

For (+)-O-desmethyltramadol [(+)-M1], the Basal pressure [1, 3] was “Diff.: +7%”, the Bladder capacity [1, 3] was “Diff.: +31%” and the Inter-contraction interval [1, 3] was “Diff.: +31%”. For the same compound, the Micturition pressure [1, 3] was “Diff.: −22%”, the Micturition volume [1, 3] was “Diff.: +48%” and the Residual volume [1, 3] was “Diff.: −73%”. For the same compound, the Threshold pressure [1, 3] was “Diff.: +32%”, the Basal pressure [1, 4] was “h: 3.87 ± 0.43 cm H2O” and the Bladder capacity [1, 4] was “h: 0.98 ± 0.06 ml”. The Inter-contraction interval [1, 4] was 5.51 ± 0.52 min, the Micturition pressure [1, 4] was “h: 70 ± 11 cm H2O” and the Micturition volume [1, 4] was “h: 0.95 ± 0.09 ml”. For the same compound, the Residual volume [1, 4] was “h: 0.03 ± 0.02 ml”, the Threshold pressure [1, 4] was “h: 8.07 ± 0.97 cm H2O” and the Basal pressure [1, 5] was “v: 3.62 ± 0.24 cm H2O”. For the same compound, the Bladder capacity [1, 5] was “v: 0.75 ± 0.08 ml”, the Inter-contraction interval [1, 5] was 4.20 ± 0.55 min and the Micturition pressure [1, 5] was “v: 90 ± 12 cm H2O”. The Micturition volume [1, 5] was “v: 0.64 ± 0.10 ml”, the Residual volume [1, 5] was “v: 0.11 ± 0.02 ml” and the Threshold pressure [1, 5] was “v: 6.12 ± 0.51 cm H2O”. For the same compound, the Basal pressure [1, 9] was “Diff.: +25%”, the Bladder capacity [1, 9] was “Diff.: +44%” and the Inter-contraction interval [1, 9] was “Diff.: +46%”. For the same compound, the Micturition pressure [1, 9] was “Diff.: −30%”, the Micturition volume [1, 9] was “Diff.: +51%” and the Residual volume [1, 9] was “Diff.: −33%”. For the same compound, the Threshold pressure [1, 9] was “Diff.: +106%”, the Basal pressure [1, 10] was “h: 4.90 ± 0.55 cm H2O” and the Bladder capacity [1, 10] was “h: 1.35 ± 0.11 ml”. The Inter-contraction interval [1, 10] was 7.63 ± 0.60 min, the Micturition pressure [1, 10] was “h: 66 ± 10 cm H2O” and the Micturition volume [1, 10] was “h: 1.28 ± 0.09 ml”. The Residual volume [1, 10] was “h: 0.06 ± 0.02 ml”, the Threshold pressure [1, 10] was “h: 15.34 ± 1.16 cm H2O” and the Basal pressure [1, 11] was “v: 3.91 ± 0.31 cm H2O”. The Bladder capacity [1, 11] was “v: 0.94 ± 0.08 ml”, the Inter-contraction interval [1, 11] was 5.23 ± 0.45 min and the Micturition pressure [1, 11] was “v: 94 ± 10 cm H2O”. The Micturition volume [1, 11] was “v: 0.85 ± 0.08 ml”, the Residual volume [1, 11] was “v: 0.09 ± 0.02 ml” and the Threshold pressure [1, 11] was “v: 7.44 ± 1.10 cm H2O”. The “bladder capacity (in words)” value ([1]; 0.1 and 0.5 mg/kg i.v.) was “increased”, the “interval between micturition (in words)” value ([1]; 0.1 and 0.5 mg/kg i.v.) was “extended” and the “threshold pressure (in words)” value ([1]; 0.1 and, in particular, 0.5 mg/kg i.v.) was “distinct rise”.
